Measured values: the supplement of paper PMC10307832

Assays:
Experiment in all cases: relative viability (nuclei count vs DMSO), 5 days (fraction); higher = more cells survive
4EGI-1 + Trametinib = compound: O=C(O)C(Cc1ccccc1[N+](=O)[O-])=NNc1nc(-c2ccc(Cl)c(Cl)c2)cs1 (mixture of isomers) [4EGI-1] + CC(=O)Nc1cccc(-n2c(=O)n(C3CC3)c(=O)c3c(Nc4ccc(I)cc4F)n(C)c(=O)c(C)c32)c1 [Trametinib] (partner 0.02 µM)
Summary of the method: (§1)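 Relative viability equals treated-well nuclei counts divided by vehicle-well nuclei counts. Counts came from 4× images of lung cancer cell lines grown in 1536-well plates for 5 days after pin-tool dosing on the day after seeding. Dosing used one drug alone or a fixed anchor-drug dose plus five library-drug doses (not always all listed) in √10 steps, and values are medians of duplicate plates.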

4EGI-1 + Navitoclax = compound: O=C(O)C(Cc1ccccc1[N+](=O)[O-])=NNc1nc(-c2ccc(Cl)c(Cl)c2)cs1 (mixture of isomers) [4EGI-1] + CC1(C)CCC(c2ccc(Cl)cc2)=C(CN2CCN(c3ccc(C(=O)NS(=O)(=O)c4ccc(N[C@H](CCN5CCOCC5)CSc5ccccc5)c(S(=O)(=O)C(F)(F)F)c4)cc3)CC2)C1 [Navitoclax] (partner 0.5 µM)
Summary of the method: as §1

XMD8-85 + Olaparib = compound: CN1CCN(CC1)C2=CC(=C(C=C2)NC3=NC=C4C(=N3)N(C5=CC=CC=C5C(=O)N4C)C)OC [XMD8-85] + O=C(c1cc(Cc2n[nH]c(=O)c3ccccc23)ccc1F)N1CCN(C(=O)C2CC2)CC1 [Olaparib] (partner 8 µM)
Summary of the method: as §1

4EGI-1 + Crizotinib = compound: O=C(O)C(Cc1ccccc1[N+](=O)[O-])=NNc1nc(-c2ccc(Cl)c(Cl)c2)cs1 (mixture of isomers) [4EGI-1] + C[C@@H](Oc1cc(-c2cnn(C3CCNCC3)c2)cnc1N)c1c(Cl)ccc(F)c1Cl [Crizotinib] (partner 1 µM)
Summary of the method: as §1

In the case of NCI-H1792, the relative viability (4EGI-1 + Trametinib; first compound 0.5 µM) is reported as 0.524, the relative viability (4EGI-1 + Trametinib; first compound 1.581 µM) is reported as 0.428 and the relative viability (4EGI-1 + Trametinib; first compound 5 µM) is reported as 0.359. The relative viability (4EGI-1 + Trametinib; first compound 15.81 µM) was 0.479, the relative viability (4EGI-1 + Trametinib; first compound 50 µM) was 0.366 and the relative viability (4EGI-1 + Navitoclax; first compound 0.5 µM) was 0.618. For the same cell line, the relative viability (4EGI-1 + Navitoclax; first compound 1.581 µM) was 0.498, the relative viability (4EGI-1 + Navitoclax; first compound 5 µM) was 0.607 and the relative viability (4EGI-1 + Navitoclax; first compound 15.81 µM) was 0.552. The relative viability (4EGI-1 + Navitoclax; first compound 50 µM) was 0.542, the relative viability (XMD8-85 + Olaparib; first compound 0.253 µM) was 0.526 and the relative viability (XMD8-85 + Olaparib; first compound 0.8 µM) was 0.298. It also gave a relative viability (XMD8-85 + Olaparib; first compound 2.53 µM) of 0.284, a relative viability (XMD8-85 + Olaparib; first compound 8 µM) of 0.318 and a relative viability (4EGI-1 + Crizotinib; first compound 0.5 µM) of 0.963. The relative viability (4EGI-1 + Crizotinib; first compound 1.581 µM) was 0.772, the relative viability (4EGI-1 + Crizotinib; first compound 5 µM) was 0.963 and the relative viability (4EGI-1 + Crizotinib; first compound 15.81 µM) was 0.842. The relative viability (4EGI-1 + Crizotinib; first compound 50 µM) was 0.823.
